Experimental data taken from US20030235872A1, “Assay method” (priority 2002, published 2003).
“Also recorded” adds a separate entry of the source.

Experiments:
[1] = tested on: vascular SMC membranes (plasma membrane-enriched fraction); test: Biosensor (surface plasmon resonance, BIAcore L1 chip) binding of Aβ to vascular SMC membranes; set-up: species or system rat; KA1 (equilibrium association constant for high affinity binding component) / KA2 (equilibrium association constant of low-affinity binding component): unit not given here; conditions: for KA1 (equilibrium association constant for high affinity binding component) / KA2 (equilibrium association constant of low-affinity binding component): competing reaction model; for binding to plasma membrane-enriched fraction from vascular smooth muscle cells: FIG. 6
Method: (§1) Vascular SMCs were plated at a density of 10^4 cells/well in a 96-well plate, or at a density of 10^6 cells/75 cm^2 cell culture flask (Nunc, Denmark) in 20 ml culture medium, and grown to 80% confluence, after which the medium was removed and replaced with fresh, serum-free medium with or without […] lovastatin.
(§2) A crude plasma membrane preparation was prepared from vascular SMCs by differential centrifugation (Hubbard et al., 1983). Cells were scraped off 10×75 cm^2 flasks using a cell scraper, and centrifuged in DMEM at 3,000 rpm in a Beckman Coulter Allegra 21R centrifuge at 4° C. for 3 min. The pellet was then washed with phosphate-buffered saline (PBS), added to 10 ml of STM buffer (0.25 M sucrose/5 mM Tris-HCl, pH 7.4/1.0 mM MgCl2), and homogenized on ice using 10 up and down strokes in a 40 ml Dounce-type glass homogenizer with a loose-fitting pestle. The homogenate was centrifuged at 1,100 rpm for 5 min. The supernatant fraction was saved and the pellet rehomogenized in 5 ml of STM buffer. The suspension was again centrifuged, and the first and second supernatant fractions combined, then centrifuged at 40,000 rpm for 2 h (Beckman L8-M Ultracentrifuge, 70 Ti rotor, no brake) and the resulting crude plasma membrane fraction resuspended in 1.0 ml of 0.02 M sodium phosphate buffer, pH 7.4. Total membrane cholesterol was determined using the Amplex Red cholesterol assay kit (Molecular Probes, Eugene, Oreg., USA). The protein content of the membrane preparations was determined using the bicinchoninic acid (BCA) assay using bovine serum albumin as standard.
(§3) Binding experiments were carried out with a BIAcore X analytical system (Biacore, Uppsala, Sweden) using an L1 sensor chip (Biacore), as supplied by the manufacturer. It will be appreciated that other types of biosensor may also be used, preferably provided that the chip surface is such that the bound lipid material is able to retain a bilayer or monolayer structure. The running buffer used for all experiments was 0.02 M sodium phosphate buffer, pH 6.8 (phosphate buffer). The washing solution was 40 mM N-octyl β-D-glucopyranoside. The regeneration solution was 10 mM sodium hydroxide. All solutions were freshly prepared, degassed and filtered through a […] filter. The operating temperature was 25° C.
(§4) The alkyl surface of the L1 chip was cleaned by an injection of 25 μl of non-ionic 40 mM octyl glucoside at a flow rate of 5 μl/min. SUV (100 μl) or vascular SMC membranes (100 μl containing 0.33 mg protein) were then immediately applied to the chip surface at a low rate of 5 μl/min. To remove any multilamellar structures from the synthetic lipid surface, 30 μL of 10 mM sodium hydroxide was injected at a flow rate of […], resulting in a stable baseline corresponding to the successful formation of an immobilized layer of SUVs.
(§5) Peptide solutions were prepared at concentrations ranging from 0.5 to 10 μM. The solutions were injected over the lipid surface at a flow rate of 5 μl/min for 20 min. The peptide solution was then replaced by phosphate buffer and the peptide-membrane complex allowed to dissociate. The removal of the bound peptide and regeneration of the L1 chip surface, without removal of the synthetic lipid or vascular SMC membrane layer, was achieved by an injection of sodium hydroxide (30 μl, 10 mM) at a flow rate of 50 μl/min.

[2] = tested on: vascular SMC membrane cholesterol; test: Cholesterol and protein content of plasma membrane fraction from lovastatin-treated vascular SMCs; assay type: cell-based, rat; conditions: cells pretreated with lovastatin 72 h; Amplex Red cholesterol assay
Method: as §1
as §2, with “The suspension was again centrifuged, and the first and second supernatant fractions combined, then centrifuged at 40,000 rpm for 2 h (Beckman L8-M Ultracentrifuge, 70 Ti rotor, no brake) and the resulting crude plasma membrane fraction resuspended in 1.0 ml of 0.02 M sodium phosphate buffer, pH 7.4.” left out, “standard. […]” for “standard.”

[3] = tested on: vascular SMCs; test: Effect of lovastatin pretreatment on Aβ toxicity in vascular SMCs (MTS assay); conditions: lovastatin pretreatment 72 h
[4] = tested on: synthetic lipid mixtures (cholesterol: phospholipid SUV); test: Biosensor (surface plasmon resonance, BIAcore L1 chip) binding of Aβ to synthetic lipid mixtures; set-up: KA1 (equilibrium association constant for high affinity binding component) / KA2 (equilibrium association constant of low-affinity binding component): unit not given here; conditions: for KA1 (equilibrium association constant for high affinity binding component) / KA2 (equilibrium association constant of low-affinity binding component): competing reaction model; for extent of binding to the synthetic lipid mixture: 10 μM, cholesterol: phospholipid 60:40, compared with Aβ 1-28, FIG. 4
Method: Small 100 nm unilamellar vesicles (SUV), containing DMPC, DMPG, DMPS and DMPE, and cholesterol, were prepared in 0.02 M phosphate buffer (pH 6.8) by sonication and extraction. Briefly, 1.5 mg of total lipid was dissolved in 1.5 ml of CHCl3: MeOH (3:1, v/v). Aliquots (408 μl) were removed and evaporated under a stream of nitrogen, and the lipids further dried in vacuo overnight. The lipids were then resuspended in 600 μl of 0.02 M sodium phosphate buffer, pH 6.8. The resulting lipid dispersion was sonicated in a bath type sonicator until clear, and then extruded 17 times through 100 nm pore diameter polycarbonate filters using Liposofast apparatus (Avestin, Ottawa, Canada) to obtain 100 nm […]. The mixed lipid vesicles contained 80% (w/w), 60% (w/w), 40% (w/w), 30% (w/w) or 0% (w/w) cholesterol. The remaining lipid comprised a mixture of DMPC: DMPE: DMPS: DMPG in a ratio of 75:20:2.5:2.5 (by weight).
as §3, §4, §5
The amount of binding in response units (RU) was fitted by a simple one-to-one Langmuir reaction model (Morton et al., 1995):
or a competing reaction model (Karlsson and Falt, 1997):
using BIAevaluation 3.0 software (Biacore). The data obtained from five different binding experiments performed at five different concentrations of peptide were fitted globally to obtain the equilibrium association constant (KA). The accuracy of each fit was assessed by calculating a X^2 value for the data (Karlsson and Failt, 1997). A lower X^2 value was taken as an indication of a better fit of the data. […] Scatchard plots were generated using BIAevaluation 3.0 software (Biacore).
As previous studies have shown that Aβ can interact directly with lipid membranes, we examined the possibility that the toxic effects of Aβ were due to a direct interaction with the vascular SMC membrane. To study the binding of Aβ to lipids, biosensor technology was employed.

[5] = tested on: vascular SMCs; test: MTS assay of cytotoxicity of Aβ peptides against vascular smooth muscle cells; assay type: cell-based, rat; conditions: 24 h, FIG. 1; for toxicity against vascular SMCs (MTS assay): peptide 10 μM; for toxicity against vascular SMCs after aging the peptide (MTS assay): peptide aged 5 days, 10 μM
Method: (§6) Aβ 1-42, Aβ 1-40, Aβ 1-28, Aβ 17-42 and Aβ 29-42 were dissolved in dimethyl sulfoxide (DMSO) at a concentration of 2 mM. The peptide solutions were then sonicated (42 kHz) for 5 minutes, and centrifuged at 5,000 rpm for 1 minute at room temperature using a Hermle Z160M bench microfuge. Solubilised peptides were immediately snap-frozen and mixed on a vortex mixer for 15 seconds. The peptides were then diluted into DMEM for cell culture experiments, or in 0.02 M sodium phosphate buffer, pH 6.8 for biosensor experiments, to give a final concentration of 10 μM.
as §1
The F3-(4,5-dimethylthiazol-2-yl)-5-(3-carboxymethoxyphenyl)-2(4-sulfophenyl)-2H-tetrazolium (MTS) reagent solution was added to the culture medium at a concentration of 10% (by volume).
To measure Aβ toxicity against vascular SMCs, cultures of cells were treated with Aβ peptides and analogues (10 μM) and the amount of toxicity determined using the MTS assay (Cory et al., 1991). […] Aging the peptides by incubation for 5 days caused a significant increase in toxicity. Previous studies (e.g., Pike et al., 1991) have shown that the aggregation of the Aβ into fibrils may be important for the generation of toxic species. The present results support this conclusion. […] In general, the amount of Aβ toxicity approximately correlated with the proportion of fibrillar species.

[6] = Congo Red assay of amyloid fibrils; assay type: physicochemical; conditions: peptide aged 5 days, 10 μM; FIG. 2
Method: as §6
The concentration of amyloid fibrils was measured using the assay of Klunk et al. (1999). Aβ peptides were mixed with Congo red (CR) in 0.02 M sodium phosphate buffer, pH 6.8. The final concentration of peptide and CR was 10 μM. Solutions of CR alone were also prepared in 0.02 M sodium phosphate buffer, pH 6.8. The mixture was vortexed briefly and then incubated at room temperature for 15 min. The absorbances at 403 and 541 nm were measured using a BioRad SmartSpec 3000 spectrophotometer. Background absorbance values of buffer alone were subtracted from the values obtained from each sample. The concentration of Aβ fibrils in each preparation was then determined using the formula
All preparations were prepared in triplicate, and the assay was conducted independently three times, with similar results being obtained in each experiment.

[7] = membranes from lovastatin-treated vascular SMCs (72 h)
[8] = membranes from untreated vascular SMCs

Molecule	KA1 (equilibrium association constant for high affinity binding component) ([4]; Cholesterol: PL ratio 30 : 70)	KA2 (equilibrium association constant of low-affinity binding component) ([4]; Cholesterol: PL ratio 30 : 70)	KA2 (equilibrium association constant of low-affinity binding component) ([4]; Cholesterol: PL ratio 60 : 40)	KA1 (equilibrium association constant for high affinity binding component) ([4]; Cholesterol: PL ratio 80 : 20)	KA2 (equilibrium association constant of low-affinity binding component) ([4]; Cholesterol: PL ratio 80 : 20)	KA1 (equilibrium association constant for high affinity binding component) [1, 7]	KA2 (equilibrium association constant of low-affinity binding component) [1, 7]	KA1 (equilibrium association constant for high affinity binding component) [1, 8]	KA2 (equilibrium association constant of low-affinity binding component) [1, 8]	extent of binding to the synthetic lipid mixture [4]	binding to plasma membrane-enriched fraction from vascular smooth muscle cells ([1]; peptide 10 μM)	toxicity against vascular SMCs (MTS assay) [5]	toxicity against vascular SMCs after aging the peptide (MTS assay) [5]	also measured
CC[C@H](C)C(=O)O[C@H]1C[C@@H](C)C=C2C=C[C@H](C)[C@H](CC[C@@H]3C[C@@H](O)CC(=O)O3)[C@H]21 [lovastatin, Lovastatin]	–	–	–	–	–	–	–	–	–	–	–	–	–	Aβ1-40 and Aβ1-42 binding to plasma membrane fraction of lovastatin-treated cells, relative to that without lovastatin pretreatment ([1]; cells pretreated with lovastatin 72 h, unaged Aβ 10 μM, RU20): approximately 25%; cholesterol content of the membrane fraction relative to untreated cells [2]: approximately 55%; effect of lovastatin alone on the ability of vascular SMCs to reduce MTS ([3]; no Aβ): little effect; reduction of the Aβ1-40 and Aβ1-42-induced decrease in MTS reduction in lovastatin-treated cells versus controls ([3]; then unaged Aβ 10 μM 24 h, FIG. 7): 25-40%
Aβ17-42: C-terminal Aβ fragment, residues 17-42 (LVFFAEDVGSNKGAIIGLMVGGVVIA; Amyloid-beta protein 42; UniProt P05067 688-713, looked up, fragment)	–	–	–	–	–	–	–	–	–	bound more strongly	–	significant toxicity	–	–
Aβ1-28: N-terminal Aβ fragment, residues 1-28	–	–	–	–	–	–	–	–	–	–	–	less toxic	still toxic; also recorded: significantly less toxic	fibrillar species (Congo red binding assay) [6]: failed to form fibrils; also recorded: formed fewer fibrillar species

More lines, main results first:

KA1 (equilibrium association constant for high affinity binding component) ([4]; Cholesterol: PL ratio 30 : 70)	KA2 (equilibrium association constant of low-affinity binding component) ([4]; Cholesterol: PL ratio 30 : 70)	KA2 (equilibrium association constant of low-affinity binding component) ([4]; Cholesterol: PL ratio 60 : 40)	KA1 (equilibrium association constant for high affinity binding component) ([4]; Cholesterol: PL ratio 80 : 20)	KA2 (equilibrium association constant of low-affinity binding component) ([4]; Cholesterol: PL ratio 80 : 20)	KA1 (equilibrium association constant for high affinity binding component) [1, 7]	KA2 (equilibrium association constant of low-affinity binding component) [1, 7]	KA1 (equilibrium association constant for high affinity binding component) [1, 8]	KA2 (equilibrium association constant of low-affinity binding component) [1, 8]	extent of binding to the synthetic lipid mixture [4]	Molecule	binding to plasma membrane-enriched fraction from vascular smooth muscle cells ([1]; peptide 10 μM)	toxicity against vascular SMCs (MTS assay) [5]	toxicity against vascular SMCs after aging the peptide (MTS assay) [5]	also measured
1.8 × 10^5	6.9 × 10^4	4.8 × 10^7	2.7 × 10^8	6.9 × 10^7	9.3 × 10^4	5.3 × 10^4	1.8 × 10^6	9.6 × 10^5	–	Aβ1-42: β-amyloid protein peptide, residues 1-42, made by manual solid-phase Boc synthesis	bound to the membrane fraction	significant toxicity	significant increase in cytotoxicity	–
–	–	–	–	–	–	–	–	–	bound more strongly	Aβ29-42: C-terminal Aβ fragment, residues 29-42 (GAIIGLMVGGVVIA; Amyloid-beta protein 42; UniProt P05067 700-713, looked up, fragment)	–	significant toxicity	–	–
1.1 × 10^5	5.2 × 10^4	1.3 × 10^6	4.8 × 10^7	1.0 × 10^7	4.1 × 10^4	3.6 × 10^4	8.3 × 10^5	5.9 × 10^5	–	Aβ1-40: β-amyloid protein peptide, residues 1-40, made by manual solid-phase Boc synthesis	bound to the membrane fraction	significant toxicity	–	KA1 (equilibrium association constant for high affinity binding component) ([4]; Cholesterol: PL ratio 60 : 40): 4.0 × 10^7; total amount of binding to SMC membrane fraction relative to synthetic lipid mixture containing 60% cholesterol and 40% phospholipid ([1]; peptide 10 μM): approximately 10%
